Reference: ChEMBL document CHEMBL3044598, “Study of inhibitory effects and action mechanism of the novel fungicide pyrimorph against Phytophthora capsici” (J Agric Food Chem, 2010)
In brackets after ≈: the same amount, converted by molar mass. Activity calls are given as the source filed them. No cut-off for these calls is given here.

Tests used:
Phytophthora capsici [1] = assay: Inhibition of intact mycelial respiration of Phytophthora capsici at 10 ug/mL; assay type: functional
Phytophthora capsici [2] = assay: Inhibition of intact mycelial respiration of Phytophthora capsici assessed as superpose rate of oxygen consumption at 10 ug/mL in presence of iodoacetic acid; assay type: functional; parameters: scale not given: the % may be the effect or the level left
Phytophthora capsici [3] = assay: Inhibition of intact mycelial respiration of Phytophthora capsici assessed as superpose rate of oxygen consumption at 10 ug/mL in presence of malonic acid; assay type: functional; parameters: scale not given: the % may be the effect or the level left
Phytophthora capsici [4] = assay: Inhibition of intact mycelial respiration of Phytophthora capsici assessed as superpose rate of oxygen consumption at 10 ug/mL in presence of sodium phosphate; assay type: functional; parameters: scale not given: the % may be the effect or the level left
Phytophthora capsici [5] = assay: Inhibition of intact mycelial respiration of Phytophthora capsici at 10 ug/mL in presence of sodium phosphate; assay type: functional
Phytophthora capsici [6] = assay: Inhibition of intact mycelial respiration of Phytophthora capsici at 10 ug/mL in presence of malonic acid; assay type: functional
Phytophthora capsici [7] = assay: Inhibition of intact mycelial respiration of Phytophthora capsici at 10 ug/mL in presence of iodoacetic acid; assay type: functional
Phytophthora capsici [8] = assay: Inhibition of intact mycelial respiration of Phytophthora capsici assessed as superpose rate of oxygen consumption at 100 ug/mL in presence of iodoacetic acid; assay type: functional; parameters: scale not given: the % may be the effect or the level left
Phytophthora capsici [9] = assay: Inhibition of intact mycelial respiration of Phytophthora capsici at 100 ug/mL in presence of iodoacetic acid; assay type: functional
Phytophthora capsici [10] = assay: Inhibition of intact mycelial respiration of Phytophthora capsici at 100 ug/mL in presence of sodium phosphate; assay type: functional
Phytophthora capsici [11] = assay: Inhibition of intact mycelial respiration of Phytophthora capsici assessed as superpose rate of oxygen consumption at 100 ug/mL in presence of malonic acid; assay type: functional; parameters: scale not given: the % may be the effect or the level left
Phytophthora capsici [12] = assay: Inhibition of intact mycelial respiration of Phytophthora capsici assessed as superpose rate of oxygen consumption at 100 ug/mL in presence of sodium phosphate; assay type: functional; parameters: scale not given: the % may be the effect or the level left
Phytophthora capsici [13] = assay: Inhibition of intact mycelial respiration of Phytophthora capsici at 100 ug/mL in presence of malonic acid; assay type: functional
Phytophthora capsici [14] = assay: Inhibition of intact mycelial respiration of Phytophthora capsici at 100 ug/mL; assay type: functional
Phytophthora capsici [15] = assay: Inhibition of sporangia formation of Phytophthora capsici at 0.2 ug/mL treated 240 min after sporangia incubation followed by compound exposure for 60 min by light microscopy; assay type: functional
Phytophthora capsici [16] = assay: Induction of morphological changes in Phytophthora capsici assessed as increase in dense bodies at 10 ug/mL by transmission electron microscopy; assay type: functional, organism-based
Phytophthora capsici [17] = assay: Induction of morphological changes in Phytophthora capsici assessed as reduction in number of vesicles at 5 ug/mL by transmission electron microscopy; assay type: functional, organism-based
Phytophthora capsici [18] = assay: Induction of morphological changes in Phytophthora capsici assessed as distortion of vacuoles and vesicles in dense bodies at 10 ug/mL by transmission electron microscopy; assay type: functional, organism-based
Phytophthora capsici [19] = assay: Induction of morphological changes in Phytophthora capsici assessed as induction of distortion of cell wall at 10 ug/mL by transmission electron microscopy; assay type: functional, organism-based
Phytophthora capsici [20] = assay: Inhibition of cytospore germination of Phytophthora capsici at 2 ug/mL after 24 hr; assay type: functional
Phytophthora capsici [21] = assay: Inhibition of mycelial radial growth of Phytophthora capsici at 10 ug/mL incubated at 25 degC for 5 days in presence of 1 ug/mL ATP; assay type: functional
Phytophthora capsici [22] = assay: Inhibition of cytospore germination of Phytophthora capsici at 0.1 ug/mL after 24 hr; assay type: functional
Phytophthora capsici [23] = assay: Inhibition of zoospore release of Phytophthora capsici at 25 ug/mL; assay type: functional
Phytophthora capsici [24] = assay: Inhibition of sporangia formation of Phytophthora capsici at 1 ug/mL treated 240 min after sporangia incubation followed by compound exposure for 60 min by light microscopy; assay type: functional
Phytophthora capsici [25] = assay: Inhibition of sporangia formation of Phytophthora capsici at 2 ug/mL treated 240 min after sporangia incubation followed by compound exposure for 60 min by light microscopy; assay type: functional
Phytophthora capsici [26] = assay: Inhibition of mycelial radial growth of Phytophthora capsici at 0.6 ug/mL incubated at 25 degC for 5 days; assay type: functional; conditions: 120 h
Phytophthora capsici [27] = assay: Inhibition of cytospore germination of Phytophthora capsici after 24 hr; assay type: functional, organism-based
Phytophthora capsici [28] = assay: Inhibition of zoospore release of Phytophthora capsici at 12 ug/mL; assay type: functional
Phytophthora capsici [29] = assay: Induction of morphological changes in Phytophthora capsici assessed as increase in extensive cell wall proliferation at 5 ug/mL by transmission electron microscopy; assay type: functional, organism-based
Phytophthora capsici [30] = assay: Inhibition of mycelial radial growth of Phytophthora capsici at 5 ug/mL incubated at 25 degC for 5 days in presence of 1 ug/mL ATP; assay type: functional
Phytophthora capsici [31] = assay: Inhibition of zoospore release of Phytophthora capsici at 100 ug/mL; assay type: functional
Phytophthora capsici [32] = assay: Inhibition of sporangia formation of Phytophthora capsici treated 240 min after sporangia incubation followed by compound exposure for 60 min by light microscopy; assay type: functional, organism-based
Phytophthora capsici [33] = assay: Induction of morphological changes in Phytophthora capsici assessed as abnormal mycelial growth at 5 ug/mL by scanning electron microscopy; assay type: functional, organism-based
Phytophthora capsici [34] = assay: Inhibition of mycelial radial growth of Phytophthora capsici at 1 ug/mL incubated at 25 degC for 5 days; assay type: functional; conditions: 120 h
Phytophthora capsici [35] = assay: Induction of morphological changes in Phytophthora capsici assessed as increase in abnormal mycelial configurations at 10 ug/mL by scanning electron microscopy; assay type: functional, organism-based
Phytophthora capsici [36] = assay: Inhibition of cytospore germination of Phytophthora capsici at 1 ug/mL after 24 hr; assay type: functional
Phytophthora capsici [37] = assay: Inhibition of mycelial radial growth of Phytophthora capsici incubated at 25 degC for 5 days; assay type: functional, organism-based; conditions: 120 h
Phytophthora capsici [38] = assay: Inhibition of sporangia formation of Phytophthora capsici at 0.1 ug/mL treated 240 min after sporangia incubation followed by compound exposure for 60 min by light microscopy; assay type: functional
Phytophthora capsici [39] = assay: Inhibition of sporangia formation of Phytophthora capsici at 0.5 ug/mL treated 240 min after sporangia incubation followed by compound exposure for 60 min by light microscopy; assay type: functional
Phytophthora capsici [40] = assay: Induction of morphological changes in Phytophthora capsici assessed as increase in mycelial ramifications at 10 ug/mL by scanning electron microscopy; assay type: functional, organism-based
Phytophthora capsici [41] = assay: Induction of morphological changes in Phytophthora capsici assessed as abnormal mycelial growth at 10 ug/mL by scanning electron microscopy; assay type: functional, organism-based
Phytophthora capsici [42] = assay: Induction of morphological changes in Phytophthora capsici assessed as increase in mycelial colony density at 5 ug/mL by scanning electron microscopy; assay type: functional, organism-based
Phytophthora capsici [43] = assay: Inhibition of mycelial radial growth of Phytophthora capsici at 2 ug/mL incubated at 25 degC for 5 days; assay type: functional; conditions: 120 h
Phytophthora capsici [44] = assay: Induction of morphological changes in Phytophthora capsici assessed as increase in mycelial colony density at 10 ug/mL by scanning electron microscopy; assay type: functional, organism-based
Phytophthora capsici [45] = assay: Inhibition of mycelial radial growth of Phytophthora capsici at 5 ug/mL incubated at 25 degC for 5 days; assay type: functional; conditions: 120 h
Phytophthora capsici [46] = assay: Inhibition of cytospore germination of Phytophthora capsici at 0.5 ug/mL after 24 hr; assay type: functional
Phytophthora capsici [47] = assay: Inhibition of mycelial radial growth of Phytophthora capsici at 10 ug/mL incubated at 25 degC for 5 days in absence of 5 ug/mL ATP; assay type: functional
Phytophthora capsici [48] = assay: Inhibition of zoospore release of Phytophthora capsici at 6 ug/mL; assay type: functional
Phytophthora capsici [49] = assay: Inhibition of cytospore germination of Phytophthora capsici at 0.2 ug/mL after 24 hr; assay type: functional
Phytophthora capsici [50] = assay: Induction of morphological changes in Phytophthora capsici assessed as induction of multilayered cell wall development at 10 ug/mL by transmission electron microscopy; assay type: functional, organism-based
Phytophthora capsici [51] = assay: Inhibition of mycelial radial growth of Phytophthora capsici at 10 ug/mL incubated at 25 degC for 5 days in presence of 5 ug/mL ATP; assay type: functional
Phytophthora capsici [52] = assay: Inhibition of mycelial radial growth of Phytophthora capsici at 5 ug/mL incubated at 25 degC for 5 days in presence of 5 ug/mL ATP; assay type: functional; conditions: 120 h
Phytophthora capsici [53] = assay: Inhibition of zoospore release of Phytophthora capsici at 50 ug/mL; assay type: functional
Phytophthora capsici [54] = assay: Inhibition of zoospore release of Phytophthora capsici; assay type: functional, organism-based

CO/C=C(/C(=O)OC)c1ccccc1Oc1cc(Oc2ccccc2C#N)ncn1 [AZOXYSTROBIN]
inhibition at 10 µg/mL (Phytophthora capsici [1]): 71.7%
Activity (Phytophthora capsici [2]): 53.27%
Activity (Phytophthora capsici [3]): 9.02%
Activity (Phytophthora capsici [4]): 51.36%
inhibition at 10 µg/mL (Phytophthora capsici [5]): 86.2%
inhibition at 10 µg/mL (Phytophthora capsici [6]): 74.2%
inhibition at 10 µg/mL (Phytophthora capsici [7]): 86.8%

COc1ccc(C(=CC(=O)N2CCOCC2)c2ccc(Cl)cc2)cc1OC [DIMETHOMORPH]
Activity (Phytophthora capsici [8]): 51.62%
inhibition at 100 µg/mL (Phytophthora capsici [9]): 61.1%
inhibition at 100 µg/mL (Phytophthora capsici [10]): 55%
Activity (Phytophthora capsici [11]): 49.91%
Activity (Phytophthora capsici [12]): 44.06%
inhibition at 100 µg/mL (Phytophthora capsici [13]): 59.6%
inhibition at 100 µg/mL (Phytophthora capsici [14]): 19.4%

CC(C)(C)c1ccc(/C(=C/C(=O)N2CCOCC2)c2ccnc(Cl)c2)cc1 [PYRIMORPH]
inhibition at 0.2 µg/mL (Phytophthora capsici [15]): 57%
Activity (Phytophthora capsici [8]): 32.61%
Activity (Phytophthora capsici [16]): Active
Activity (Phytophthora capsici [17]): Active
Activity (Phytophthora capsici [18]): Active
Activity (Phytophthora capsici [19]): Active
inhibition at 2 µg/mL (Phytophthora capsici [20]): 84%
inhibition at 100 µg/mL (Phytophthora capsici [9]): 60.2%
inhibition (INH) (Phytophthora capsici [21]): 78.1%
inhibition at 0.1 µg/mL (Phytophthora capsici [22]): 54%
inhibition at 25 µg/mL (Phytophthora capsici [23]): 80%
inhibition at 1 µg/mL (Phytophthora capsici [24]): 75%
inhibition at 100 µg/mL (Phytophthora capsici [10]): 44%
inhibition at 2 µg/mL (Phytophthora capsici [25]): 85%
Activity (Phytophthora capsici [11]): 18.31%
inhibition at 0.6 µg/mL (Phytophthora capsici [26]): 9%
EC50 (Phytophthora capsici [27]): 0.09 mg/L (≈ 0.234 µM)
EC90 (Phytophthora capsici [27]): 8.16 mg/L (≈ 21.2 µM)
inhibition at 12 µg/mL (Phytophthora capsici [28]): 65%
Activity (Phytophthora capsici [29]): Active
inhibition (INH) (Phytophthora capsici [30]): 75%
inhibition at 100 µg/mL (Phytophthora capsici [31]): 95%
EC50 (Phytophthora capsici [32]): 0.17 mg/L (≈ 0.442 µM)
EC90 (Phytophthora capsici [32]): 3.21 mg/L (≈ 8.34 µM)
Activity (Phytophthora capsici [12]): 5.22%
Activity (Phytophthora capsici [33]): Active
inhibition at 1 µg/mL (Phytophthora capsici [34]): 28%
Activity (Phytophthora capsici [35]): Active
inhibition at 1 µg/mL (Phytophthora capsici [36]): 71%
EC50 (Phytophthora capsici [37]): 1.84 mg/L (≈ 4.78 µM)
EC90 (Phytophthora capsici [37]): 5.71 mg/L (≈ 14.8 µM)
inhibition at 0.1 µg/mL (Phytophthora capsici [38]): 52%
inhibition at 0.5 µg/mL (Phytophthora capsici [39]): 66%
Activity (Phytophthora capsici [40]): Active
Activity (Phytophthora capsici [41]): Active
Activity (Phytophthora capsici [42]): Active
inhibition at 2 µg/mL (Phytophthora capsici [43]): 57%
Activity (Phytophthora capsici [44]): Active
inhibition at 5 µg/mL (Phytophthora capsici [45]): 81%
inhibition at 0.5 µg/mL (Phytophthora capsici [46]): 68%
inhibition at 100 µg/mL (Phytophthora capsici [13]): 51.8%
inhibition (INH) (Phytophthora capsici [47]): 98%
inhibition at 6 µg/mL (Phytophthora capsici [48]): 58%
inhibition at 0.2 µg/mL (Phytophthora capsici [49]): 56%
Activity (Phytophthora capsici [50]): Active
inhibition (INH) (Phytophthora capsici [51]): 77%
inhibition at 5 µg/mL (Phytophthora capsici [52]): 72%
inhibition at 50 µg/mL (Phytophthora capsici [53]): 94%
inhibition at 100 µg/mL (Phytophthora capsici [14]): 41%
EC50 (Phytophthora capsici [54]): 4.92 mg/L (≈ 12.8 µM)
EC90 (Phytophthora capsici [54]): 45.7 mg/L (≈ 119 µM)
